A short description of data set [1]: Solubility assay in 2% DMSO in PBS. Conditions: 2% DMSO in PBS pH 7.3, 0.5 mM, shaken up to six hours. It counts as physicochemical. On the procedure:
To analyse the solubilities of 17-AAG, geldanamycin, 18,21-dihydromacbecin and macbecin, solutions (25 mM) of the test compounds were prepared by dissolving 3-5 mg aliquots in the appropriate amount of DMSO.
Aliquots (0.01 mL) were added to 0.490 mL of pH 7.3 PBS in glass vials. For each time point, 3 PBS vials were prepared in amber glass vials. For the six hour time point triplicate aliquots in DMSO were also prepared.
The resulting 0.5 mM solutions were shaken for up to six hours, with vials removed for analysis at 1, 3 and 6 hours. Samples were analysed by HPLC (0.025 mL injections). Compounds were quantified by peak area measurement at 274 nm.
Solubility in 2% DMSO in PBS at each time point was determined by comparing total peak areas for each chromatogram with mean total peak area for chromatograms produced from the corresponding 6 hour DMSO solutions. (Mean total peak area in DMSO solutions was assumed to be equivalent to a 0.5 mM solution). The solubility of compound 17 was measured by a thermodynamic assay as described in the general methods.

Data set [2] can be described thus: Aqueous solubility by direct dissolution. It counts as physicochemical. Conditions: pH 4.5, aqueous buffer, aqueous 5 mM citrate, pH 4.5; limit not tested. The text has this:
It is not possible to measure the solubility of 20 and 23 by this method due to their intrinsic high aqueous solubility.

Data set [3] is described as follows: In vitro cleavage assay in buffer. Conditions: for half-life at 0.1 mg/ml: read-out: half-life of disappearance (converted). The class given is physicochemical. On the procedure: Samples were monitored by LC-UV, on an Agilent 1100 HPLC. Chromatography was achieved over a Phenomenex Hyperclone column, BDS C18 3 u (150×4.6 mm):
Mobile phase A: 0.1% Formic acid in water Mobile phase B: 0.1% Formic acid in acetonitrile Flow rate: 1 mL/minute: Gradient, t=0 mins, B=10%; t=2 mins, B=10%; t=20 mins, B=100%.
Compound 23 elutes at 12.1 mins and compound 17 elutes at 11.2 minutes in these conditions.
0.05 ml injections were made, repeatedly from the same sample every 3.18 hours, for 50 hours. the ambient temperature was 23 degrees C. The UV response was measured for each time point for compound 23 and 17. The half-life of disappearance of compound 23 was calculated thus:
the natural logarithm of the response was plotted with respect to time (in hours). The slope and fit of the resultant line was calculated and the half life, t1/2=(In 2)/lambda. Where lambda is the slope of the graph.

Data set [4] deals with Hsp90 (Homo sapiens, UniProt P07900). Conditions: cited from earlier work.
Data set [5] relates to panel of human tumour cell lines. Nature of the data set: Monolayer proliferation assay, mean across cell line panel. The class given is cell-based. Conditions: geometric mean of all replicates across six cell lines. On the procedure:
In vitro evaluation of compounds for anticancer activity in a panel of human tumour cell lines in a monolayer proliferation assay was carried out at the Oncotest Testing Facility, Institute for Experimental Oncology, Oncotest GmbH, Freiburg.
The Oncotest cell lines are established from human tumor xenografts as described by Roth et al., (1999). The origin of the donor xenografts is described by Fiebig et al., (1999). Other cell lines are either obtained from the NCl (DU145, MCF-7) or purchased from DSMZ, Braunschweig, Germany.
All cell lines, unless otherwise specified, are grown at 37° C. in a humidified atmosphere (95% air, 5% CO2) in a ‘ready-mix’ medium containing RPMI 1640 medium, 10% fetal calf serum, and 0.1 mg/mL gentamicin (PAA, Cölbe, Germany).
A modified propidium iodide assay was used to assess the effects of the test compound(s) on the growth of six human tumour cell lines (Dengler et al., (1995)).
Briefly, cells are harvested from exponential phase cultures by trypsinization, counted and plated in 96 well flat-bottomed microtitre plates at a cell density dependent on the cell line (5-10.000 viable cells/well). […] After thawing the plates, fluorescence was measured using the Cytofluor 4000 microplate reader (excitation 530 nm, emission 620 nm), giving a direct relationship to the total number of viable cells.
Growth inhibition is expressed as treated/control×100 (% T/C). […]

The structures appear in SMILES notation. Values after ≈ are worked out from the molar mass of the structure shown. Values joined by “and” are separate entries in the source; they are usually repeats but may differ in a detail not shown here. Equal values may be shown once. Read-outs that look alike come from different tables or passages of the source.

Regarding `COC1CC(C)C(OC)c2cc(O)cc(c2O)NC(=O)/C(C)=C\C=C/C(C)C(OC(N)=O)/C(C)=C\C(C)C1OC` (stereo not drawn) [18,21-dihydromacbecin], the solubility (as a rule, the dissolved amount per volume that the medium holds) in data set [1] is 136 µM (≈ 76.3 µg/mL).

In data set [1], `C=CCNC1=C2C[C@@H](C)C[C@H](OC)[C@H](O)[C@@H](C)/C=C(\C)[C@H](OC(N)=O)[C@@H](OC)/C=C\C=C(/C)C(=O)NC(=CC1=O)C2=O` [Compound 17-AAG, 17-(allylamino)-17-desmethoxy geldanamycin] displayed a solubility of 171 µM (≈ 100 µg/mL).

On to `CNCCN(C)C(=O)Oc1cc2cc(c1)NC(=O)/C(C)=C/CC[C@H](C)[C@@H](OC(N)=O)/C(C)=C/[C@H](C)[C@@H](O)[C@@H](OC)C[C@H](C)C2` [Compound 23, 18-O-(N,N′-dimethylethylenediaminecarbamoyl)-4,5-dihydro-11-O-demethyl-15-demethoxy-18,21-didehydro-18-hydroxy-21-deoxomacbecin], for which the solubility in data set [2] was ≥ 3000 µg/mL and ≥ 4600 µM. Moreover, the half-life of disappearance entry in data set [3] (0.1 M potassium phosphate buffer pH 4.5, 23 degrees C) was “not calculable (zero slope)”. The half-life – broadly, how long it takes for the measured level to halve – at 0.1 mg/ml was 69.3 h in data set [3] (0.1 M potassium phosphate buffer pH 5.9, 23 degrees C); 11.9 h in data set [3] (0.1 M potassium phosphate buffer pH 6.5, 23 degrees C); 2 h in data set [3] (0.1 M potassium phosphate buffer pH 7.4, 23 degrees C); 32 h in data set [3] (5% glucose, 23 degrees C). For the same molecule, the product of cleavage result in data set [3] (by LC-UV-MS) is given as “compound 17”.

Take `CO[C@H]1C[C@H](C)Cc2cc(O)cc(c2)NC(=O)/C=C/CC[C@H](OC)[C@@H](OC(N)=O)/C(C)=C/[C@H](C)[C@H]1O` [KOSN1559]: the “binding affinity to Hsp90, greater than 17-AAG” value in data set [4] (relative to 17-AAG) was 8 fold. Moreover, the “binding affinity to Hsp90, greater than geldanamycin” value in data set [4] (relative to geldanamycin) is 4 fold.

In the case of `CO[C@H]1[C@@H](OC)C[C@H](C)[C@@H](OC)C2=CC(=O)C=C(NC(=O)/C(C)=C/C=C\[C@H](C)[C@@H](OC(N)=O)/C(C)=C/[C@@H]1C)C2=O` [macbecin, reference compound], the “average IC70 value across the cell-line panel” value in data set [5] was found to be 0.21 µg/mL.
